Measurements as given in patent publication US20130030025A1, “USE OF POTASSIUM CHANNEL BLOCKERS TO TREAT CEREBRAL PALSY” (priority 2011, published 2013).
Values joined by “and” are separate entries in the source; they are usually repeats but may differ in a detail not shown here. Identical values can stand only once.

Experiments:
[1] = system: middle cerebral artery occlusion (MCAO) in rats; assay: Cylinder test, overall limb-use asymmetry (%) after MCAO; format: in vivo, Sprague Dawley rats; details: for Cylinder Test Score (Overall Asymmetry (%)): individual animals
Description: 4-AP was evaluated for its ability to promote functional sensorimotor improvement following ischemic stroke in rats with stable motor deficits at times remote from their ischemic events. The animal model mimics the conditions in human ischemic stroke and is produced by middle cerebral artery occlusion (MCAO), which results in extensive infarction in cerebral cortex and striatum, including the cortical spinal tract (white matter). In particular, the MCAO model in Sprague Dawley rats that was utilized in the experiments presented below mimics the conditions in human ischemic stroke. In this experiment, Sprague Dawley rats were anesthetized, subjected to a surgery resulting in middle cerebral artery occlusion (MCAO), treated with and without 4-aminopyridine and behavioral assessments were performed as described below. Surgical Procedure: A small focal stroke (infarct) was made on the right side of the surface of the brain (cerebral cortex) by middle cerebral artery occlusion (MCAO). The right side of the head was shaved with electric clippers (patch of approx 3×5 cm between eye and ear). The region was carefully cleaned with septisol. Using aseptic technique, an incision was made midway between the eye and eardrum canal. The temporalis muscle was isolated, bisected, and reflected. A small window of bone was removed via drill and rongeurs (subtemporal craniectomy) to expose the middle cerebral artery (MCA). Care was taken not to remove the zygomatic arch or to transect the facial nerve that would impair the ability of the animal to chew after surgery. […] The MCA was then transected. The temporalis muscle was then repositioned, and the incision was closed subcutaneously with sutures. The skin incision was closed with surgical staples (2-3 required). Throughout the procedure, body temperature was maintained at 37.0°±1° C., using a self-regulating heating pad connected to a rectal thermometer. Dosing: Rats were treated in accordance with the dosing schedule shown in Tables 1A, 1B, and FIG. 2, with each Phase being a two week period of time. A solution of 4-AP was used in this experiment. Dosing was started at 4 weeks after ischemic event. Treatment groups: Dosing was started 4 weeks after pMCAO surgery. During these 4 weeks, weekly behavioral assessments, as defined below, were performed. Two dose levels of 4-AP plus vehicle control were assessed, with treatment starting at 4 weeks after ischemic event. All dosing was via gastric gavage, volume not to exceed 2 mL/kg. Animals were given the first dose and behavioral assessments were performed starting 60 minutes after dosing. Animals then received the second dose that day at the appropriate time and b.i.d (preferably every 12 hours) thereafter for 2 more days (3 total days of dosing, 5 total doses). One hour after the 5th dose, animals were subjected to behavioral assessments as defined below. Following the final behavioral assessment, drug was withdrawn for 10 or 11 days, behavior was re-assessed, and then animals were re-challenged with a cross-over treatment (Phase II of Table 1B) as described in Tables 1A, 1B, followed by the same behavioral testing and dosing regimen. This cross-over was repeated one more time as well (Phase III of Table 1B) (see FIG. 2). Behavioral test details: Behavioral evaluations were done by investigators blinded to treatment assignment. As described above, behavioral assessments were timed exactly with dosing times. Animals were given the first dose, behavioral assessments were performed starting 60 minutes later, and blood was collected 90 minutes after dosing. Animals then received the second dose that day at the appropriate time and b.i.d (preferably every 12 hours) thereafter for 2 more days (3 total days of dosing, 5 total doses). One hour after the 5th dose, animals were subjected to behavioral testing. […]

[2] = system: middle cerebral artery occlusion (MCAO) in rats; assay: Cylinder test, total movement after MCAO; format: in vivo, Sprague Dawley rats
Description: The Y axis represents the behavioral score. […] Treatment groups: Dosing was started 4 weeks after pMCAO surgery. During these 4 weeks, weekly behavioral assessments, as defined below, were performed. Two dose levels of 4-AP plus vehicle control were assessed, with treatment starting at 4 weeks after ischemic event. All dosing was via gastric gavage, volume not to exceed 2 mL/kg. Animals were given the first dose and behavioral assessments were performed starting 60 minutes after dosing. Animals then received the second dose that day at the appropriate time and b.i.d (preferably every 12 hours) thereafter for 2 more days (3 total days of dosing, 5 total doses). One hour after the 5th dose, animals were subjected to behavioral assessments as defined below. Following the final behavioral assessment, drug was withdrawn for 10 or 11 days, behavior was re-assessed, and then animals were re-challenged with a cross-over treatment (Phase II of Table 1B) as described in Tables 1A, 1B, followed by the same behavioral testing and dosing regimen. This cross-over was repeated one more time as well (Phase III of Table 1B) (see FIG. 2). Behavioral test details: Behavioral evaluations were done by investigators blinded to treatment assignment. As described above, behavioral assessments were timed exactly with dosing times. Animals were given the first dose, behavioral assessments were performed starting 60 minutes later, and blood was collected 90 minutes after dosing. Animals then received the second dose that day at the appropriate time and b.i.d (preferably every 12 hours) thereafter for 2 more days (3 total days of dosing, 5 total doses). One hour after the 5th dose, animals were subjected to behavioral testing. Following the final behavioral assessment, drug was withdrawn for 10 or 11 days, behavior was re-assessed, and then animals were re-challenged with a cross-over treatment as described in Tables 1A, 1B, and FIG. 2, followed by the same behavioral testing and dosing regimen. Evaluation was performed at Day -1 (pre-operation), Day 7, Day 21, Day 30, Day 32, Day 44, Day 46, Day 58, Day 60. This test assessed limb use asymmetry. Rats were placed in a transparent cylinder (20 cm in diameter and 30 cm in height) for 3-6 minutes. A mirror was placed behind the cylinder to determine forelimb movements when animal was turned away from the camera. […] Simultaneous use of both left and right forelimbs while contacting the wall during a full rear was also scored. A total number of 20 forelimb placings were counted during a trial. Data was expressed in terms of percent use of the non-impaired and or impaired forelimb relative to the total number of limb use observations for wall movements.

Nc1ccncc1 [4-AP, 4-aminopyridine]
Cylinder Test Score (Overall Asymmetry (%)), Mean ([1]; Group II, D30, first dosing phase (low dose, inferred)): 26.98% | Cylinder Test Score (Overall Asymmetry (%)), Mean ([1]; Group II, D32, first dosing phase (low dose, inferred)): 23.50% | Cylinder Test Score (Overall Asymmetry (%)), Mean ([1]; Group II, D58, third dosing phase (high dose, inferred), N 12): 35.52% | Cylinder Test Score (Overall Asymmetry (%)), Mean ([1]; Group II, D60, third dosing phase (high dose, inferred), N 14): 4.43% | Cylinder Test Score (Overall Asymmetry (%)), Mean ([1]; Group III, D44, second dosing phase (high dose, inferred), N 13): 27.98% | Cylinder Test Score (Overall Asymmetry (%)), Mean ([1]; Group III, D46, second dosing phase (high dose, inferred), N 13): 10.17% | Cylinder Test Score (Overall Asymmetry (%)), Mean ([1]; Group III, D58, third dosing phase (low dose, inferred)): 12.32% | Cylinder Test Score (Overall Asymmetry (%)), Mean ([1]; Group III, D60, third dosing phase (low dose, inferred)): 3.23% | Cylinder Test Score (Overall Asymmetry (%)), Mean ([1]; group mean N=10, Group I, Phase 1, D30, High 4-AP 2.0 mg/kg b.i.d. p.o., after first dose): 17.78% | Cylinder Test Score (Overall Asymmetry (%)), Mean ([1]; group mean N=13, Group I, Phase 1, D32, High 4-AP 2.0 mg/kg b.i.d. p.o., after 5th dose): −15.95% | Cylinder Test Score (Overall Asymmetry (%)), Mean ([1]; group mean N=13, Group I, Phase 2, D46, Low 4-AP 0.63 mg/kg b.i.d. p.o., after 5th dose): 16.29% | Cylinder Test Score (Overall Asymmetry (%)), Mean ([1]; group mean N=15, Group I, Phase 2, D44, Low 4-AP 0.63 mg/kg b.i.d. p.o., after first dose): 10.38% | Cylinder Test Score (Overall Asymmetry (%)) ([1]; Group I, Phase 1, D30, High 4-AP 2.0 mg/kg b.i.d. p.o., after first dose): 9.33% and 0.00% and 50.00% (3×) and 16.67% and 38.46% and −16.67% and −100.00% and 80.00% | Cylinder Test Score (Overall Asymmetry (%)) ([1]; Group I, Phase 1, D32, High 4-AP 2.0 mg/kg b.i.d. p.o., after 5th dose): 36.36% and 24.07% and 22.73% and 5.13% and −30.00% and −100.00% (2×) and 50.00% (2×) and −60.00% and −65.79% and 16.67% and −56.52% | Cylinder Test Score (Overall Asymmetry (%)) ([1]; Group I, Phase 2, D44, Low 4-AP 0.63 mg/kg b.i.d. p.o., after first dose): 60.71% and 25.81% and 39.58% and 22.81% and 31.91% and 33.33% (2×) and 39.02% and −45.45% and −60.00% and −56.06% and 40.00% and 9.30% and 10.00% and −28.57% | Cylinder Test Score (Overall Asymmetry (%)) ([1]; Group I, Phase 2, D46, Low 4-AP 0.63 mg/kg b.i.d. p.o., after 5th dose): 63.64% and 14.89% and 30.23% and 33.33% (3×) and 36.96% and −8.33% (2×) and 25.00% and −100.00% and 50.00% and 7.69% | effect on body symmetry and coordination (cylinder test) ([1]; rats after MCAO, reversible and dose-dependent): effective to improve the asymmetry in limb usage | Cylinder Test (Total Movement), Mean ([2]; Group I, D30, first dosing phase (high dose, inferred)): 9.47 | Cylinder Test (Total Movement), Mean ([2]; Group I, D32, first dosing phase (high dose, inferred)): 16.20 | Cylinder Test (Total Movement), Mean ([2]; Group I, D44, second dosing phase (low dose, inferred)): 39.20 | Cylinder Test (Total Movement), Mean ([2]; Group I, D46, second dosing phase (low dose, inferred)): 23.87 | Cylinder Test (Total Movement), Mean ([2]; Group II, D30, N 15): 46.87 | Cylinder Test (Total Movement), Mean ([2]; Group II, D32, N 15): 36.20 | Cylinder Test (Total Movement), Mean ([2]; Group II, D58, N 15): 11.60 | Cylinder Test (Total Movement), Mean ([2]; Group II, D60, N 15): 12.93 | Cylinder Test (Total Movement), Mean ([2]; Group III, D44, N 15): 19.13 | Cylinder Test (Total Movement), Mean ([2]; Group III, D46, N 15): 18.73 | Cylinder Test (Total Movement), Mean ([2]; Group III, D58, N 15): 32.33 | Cylinder Test (Total Movement), Mean ([2]; Group III, D60, N 15): 26.67
